Results reported in patent US20230393140A1, “BINDING ASSAYS INVOLVING A PLURALITY OF SYNTHETIC COMPOUNDS, TARGETS, AND COUNTER TARGETS” (SRI International, priority 2020, published 2023).
Numbered stars: 1 amine (or outer) side, 2 acyl side, 3 side chain; on linkers, the order of the positions; unused ones are H or OH. Square brackets hold non-standard residues; d marks the D form. Peptide text beside a SMILES is read from it. * marks the point of attachment. 5FAM = O=C1OC2(c3ccc(O)cc3Oc3cc(O)ccc32)c2ccc(C(=O)*)cc21; NHCH2C6H4(4-CH2CONH2) = NC(=O)Cc1ccc(CN*)cc1; X1 = O=C(Cc1ccc(CN[*:1])cc1)[*:2]

What was measured:
IL-6R = target: T1, IL-6R (Homo sapiens, UniProt P08887); experiment: MST binding affinity of resynthesized NNP hits to IL-6R; conditions: IL-6R; ester versus amide amino acid-PAM bond polymers, library NNP2
T1 construct: purchased Creative Biomart IL6R-584H
T1 sequence (P08887 20-355 limits assumed): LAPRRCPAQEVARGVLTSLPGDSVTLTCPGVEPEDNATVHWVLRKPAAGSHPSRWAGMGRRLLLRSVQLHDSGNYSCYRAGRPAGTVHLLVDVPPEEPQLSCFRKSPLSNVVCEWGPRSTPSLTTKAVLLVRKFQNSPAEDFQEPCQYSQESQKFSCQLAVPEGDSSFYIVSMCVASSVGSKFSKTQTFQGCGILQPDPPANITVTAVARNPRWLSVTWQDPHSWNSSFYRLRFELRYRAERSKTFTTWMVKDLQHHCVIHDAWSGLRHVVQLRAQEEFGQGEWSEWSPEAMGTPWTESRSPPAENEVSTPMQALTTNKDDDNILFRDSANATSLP
Method in brief: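 Microscale thermophoresis at room temperature, triplicate, 15, 30 and 45 min incubations; targets labeled with RED-NHS 647 dye. Buffers (all 20 mM HEPES pH 7.4 unless noted): IL-6 150 mM KCl, 10 mM MgCl2, 0.1% Pluronic F-127; IL-6R 150 mM NaCl, 10 mM MgCl2, 0.05% Tween-20; TNFα 10 mM HEPES, 150 mM NaCl, 10 mM MgCl2, 0.05% Polysorbate-20; ASGPR adds 2 mM CaCl2, 0.05% Pluronic F-127, 1 mM DTT.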

[1] = type: in vitro ADME; conditions: 17 h
Experimental: For human plasma stability, lyophilized human plasma was reconstituted in sterile water for injection, aliquoted into 200 uL aliquots and stored frozen at −80 degrees C. prior to the stability studies. For the stability studies three aliquots per NNP were thawed at room temperature. An additional set of three aliquots for a positive control peptide (Angiotensin I) were also thawed. The incubations for the plasma stability were initiated by mixing 2 uL of a 2 mM stock solution of NNP IL6R-87-8 or positive control in DMSO with the 200 uL thawed plasma aliquot. After briefly vortex-mixing, 50 uL zero-time-point samples were removed, mixed with 50 uL of water and 400 uL of acetonitrile and frozen on dry ice until all time point samples had been collected. The samples were incubated at 37 degrees C. with samples removed and water/acetonitrile added at 1 hour, 3 hours, and 17 hours. Proteins were precipitated by centrifuging the samples at 17,000 G, 4 degrees C. for 1 hour. The supernatants were removed and concentrated in a centrifugal vacuum concentrator (GeneVac Genie II) at 45 degrees C. until the volume had been reduced to around 60 uL. […]

proteinase K = proteinase K (Parengyodontium album, UniProt P06873); experiment: Proteinase K stability assay; type: in vitro ADME; conditions: 37 degrees C; aliquots at 0, 1.5 and 16 hours; LC-MS
Experimental: For proteinase K stability, solutions of each tested compound (200 μM) in 10% DMSO and 20 mM Tris HCl at pH 8 were prepared. Proteinase K was added to a final concentration of […] and 100 μM of the tested compound in 5% DMSO and 10 mM Tris HCl at pH 8. The solutions were incubated at 37 degrees C. and aliquots after 0 hours, 1.5 hours and 16 hours were analyzed by LC-MS.

K-Ras = target: T2, K-Ras (Homo sapiens, UniProt P01116, G12V); experiment: MST binding affinity of resynthesized NNP hits to K-Ras; conditions: read-out: KD (nM) [95% conf. int]; MST; NNP1 library hit; target K-Ras; one-site binding model
T2 construct: purchased Cytoskeleton Inc. CS-RS04
Method in brief: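 K-Ras G12V was GTP-loaded (EDTA exchange, 750 μM GTP, 2 h at 30° C, then MgCl2) and labeled with maleimide-647 dye. MST was run at room temperature in 20 mM HEPES pH 7.4, 150 mM NaCl, 10 mM MgCl2, 0.05% Tween-20, 1 mM DTT. Incubations lasted 15, 30 and 45 min; triplicate data fitted for affinity.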

[2] = tested on: HepG2 cells (high ASGPR expressing); experiment: ASGPR uptake assay, flow cytometry, HepG2; type: cell-based, human; conditions: fluorescein-labeled compounds, flow cytometry, 2 hours
Experimental: (§1) The HEK293T (human embryonic kidney cells) and human hepatoma HepG2 cells were grown according to the protocols provided by the American Type Culture Collection (ATCC). When cells reached cell were seeded at ˜1.5×10^5 cells/well in 24-well culture plate for the uptake assay. After at least 16 hours of culture to allow cell attach and equilibrate, the compound treatment was set up for the uptake assay.
(§2) The fluorescein-labeled NNPs or fluorescein-labeled N-acetylgalactosamine (GalNAc) recognizing ASGRPR were added to wells at indicated concentrations and incubated for 2 hours. Two plates were prepared for each treatment condition, one serving as 4 degrees C. no internalization control that was kept on ice during incubation, while the second plate was incubated at 37 degrees C. to allow for energy dependent internalization. Following the incubation period, all plates were placed on ice and washed three times with ice-cold PBS/3% BSA/2 mM EDTA and then lifted with trypsin. Cells were transferred to a 96-well round bottom plates in FACS buffer. Cells were then analyzed by flow cytometry using LSR-HJ with HTS sampler (BD Biosciences, San Jose, CA, USA). Data (mean fluorescence intensities) and further analyzed using Flowjo software (BD Biosciences, San Jose, CA, USA). The internalized fraction was expressed as the difference between the corresponding 4 degrees C. and 37 degrees C. MFIs as previously described.

[3] = tested on: HEK293 cells (non-expressing); experiment: ASGPR uptake assay, flow cytometry, HEK293; type: cell-based, human; conditions: fluorescein-labeled compounds
Experimental: as §1
as §2, with “MFIs as previously described.” left out

Chain of proteinase K (P06873 106-384, species assumed): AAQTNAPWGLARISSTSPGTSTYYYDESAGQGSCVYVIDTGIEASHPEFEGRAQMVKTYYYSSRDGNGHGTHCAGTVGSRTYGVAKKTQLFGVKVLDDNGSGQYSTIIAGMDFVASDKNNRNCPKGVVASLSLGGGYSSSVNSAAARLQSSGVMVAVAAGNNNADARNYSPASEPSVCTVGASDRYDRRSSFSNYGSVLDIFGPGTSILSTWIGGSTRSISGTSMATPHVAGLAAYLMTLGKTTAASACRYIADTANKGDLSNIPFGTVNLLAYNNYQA

CC(C)C[C@H](NC(=O)[C@@H](CCCNC(=N)N)NC(=O)[C@@H](C)NC(=O)Cc1ccc(CNC(=O)[C@H](CC(C)C)NC(=O)[C@@H](CCCNC(=N)N)NC(=O)[C@@H](CCC(=O)O)NC(=O)Cc2ccc(CNC(=O)[C@H](C)NC(=O)[C@@H](CCCCN)NC(=O)[C@@H](Cc3ccc(O)cc3)NC(=O)Cc3ccc(CNC(=O)[C@H](C)NC(=O)[C@@H](CCCNC(=N)N)NC(=O)[C@@H](Cc4ccccc4)NC(=O)Cc4ccc(CNC(=O)[C@H](Cc5ccccc5)NC(=O)[C@@H](CO)NC(=O)[C@@H](CCCNC(=N)N)NC(=O)Cc5ccc(CNC(=O)[C@@H](NC(=O)[C@@H](CO)NC(=O)[C@@H](Cc6ccc(O)cc6)NC(=O)Cc6ccc(CNC(=O)[C@H](Cc7ccccc7)NC(=O)[C@H](NC(=O)[C@@H](CC(N)=O)NC(=O)c7ccc8c(c7)C(=O)OC87c8ccc(O)cc8Oc8cc(O)ccc87)C(C)C)cc6)C(C)C)cc5)cc4)cc3)cc2)cc1)C(=O)NCc1ccc(CC(=O)N2CCC[C@@H]2C(=O)N[C@H](CCCNC(=N)N)C(=O)N[C@@H](C)C(=O)NCc2ccc(CC(=O)N[C@H](Cc3ccccc3)C(=O)N[C@H](CCCCN)C(=O)NCC(=O)NCc3ccc(CC(N)=O)cc3)cc2)cc1 [IL6R-87-8, Fluorescein-(D)Asn-(D)Val-(L)Phe-PAM-(D)Tyr-(D)Ser-(L)Val-PAM-(D)Arg-(D)Ser-(L)Phe-PAM-(D)Phe-(D)Arg-(L)Ala-PAM-(D)Tyr-(D)Lys-(L)Ala-PAM-(D)Glu-(D)Arg-(L)Leu-PAM-(D)Ala-(D)Arg- (L)Leu-PAM-(D)Pro-(D)Arg-(L)Ala-PAM-(D)Phe-(D)Lys-Gly-PAM] (5FAM-[dN][dV]F[X1][dY][dS]V[X1][dR][dS]F[X1][dF][dR]A[X1][dY][dK]A[X1][dE][dR]L[X1][dA][dR]L[X1][dP][dR]A[X1][dF][dK]G-{NHCH2C6H4(4-CH2CONH2)})
Kd (IL-6R): 0.62 nM
Stability in human plasma [1]: stayed largely intact
Stability in the presence of proteinase K (proteinase K): minimal degradation

CC(C)C[C@@H](NC(=O)[C@@H](CCC(=O)O)NC(=O)[C@@H](C)NC(=O)Cc1ccc(CNC(=O)[C@H](Cc2ccccc2)NC(=O)[C@@H](CCCNC(=N)N)NC(=O)[C@@H](Cc2ccc(O)cc2)NC(=O)[C@@H](CCCCN)NC(=O)[C@H]2CCCN2C(=O)Cc2ccc(CNC(=O)CNC(=O)[C@@H](CCCNC(=N)N)NC(=O)[C@@H](CCC(=O)O)NC(=O)[C@@H](CO)NC(=O)[C@H]3CCCN3C(=O)Cc3ccc(CNC(=O)[C@H](C)NC(=O)[C@@H](CCCNC(=N)N)NC(=O)[C@H]4CCCN4C(=O)[C@H](NC(=O)CNC(=O)Cc4ccc(CNC(=O)[C@H](Cc5ccccc5)NC(=O)[C@@H](CCC(=O)O)NC(=O)[C@@H](Cc5c[nH]cn5)NC(=O)[C@H]5CCCN5C(=O)[C@@H](CO)NC(=O)c5ccc6c(c5)C(=O)OC65c6ccc(O)cc6Oc6cc(O)ccc65)cc4)C(C)C)cc3)cc2)cc1)C(=O)N[C@H](CCCCN)C(=O)N[C@@H](C)C(=O)NCc1ccc(CC(=O)NCC(=O)N[C@H](Cc2c[nH]c3ccccc23)C(=O)N[C@H](Cc2c[nH]cn2)C(=O)N[C@H](CCCNC(=N)N)C(=O)N[C@@H](C)C(=O)NCc2ccc(CC(N)=O)cc2)cc1 [KRAS-1-14] (5FAM-[dS][dP][dH][dE]F[X1]G[dV][dP][dR]A[X1][dP][dS][dE][dR]G[X1][dP][dK][dY][dR]F[X1][dA][dE][dL][dK]A[X1]G[dW][dH][dR]A-{NHCH2C6H4(4-CH2CONH2)})
Kd (K-Ras): 155 nM
Internalization (cell uptake) in HepG2 [2]: minimal uptake
Internalization (cell uptake) in HEK293 [3]: minimal uptake
